Data on one cell line can be found in the supplement of paper PMC10307832.

Holding throughout (assay): relative viability (nuclei count vs DMSO), 5 days (fraction); higher = more cells survive
Compound in the experiment “Masitinib + Luminespib”: Cc1ccc(NC(=O)c2ccc(CN3CCN(C)CC3)cc2)cc1Nc1nc(-c2cccnc2)cs1 [Masitinib] + CCNC(=O)c1noc(-c2cc(C(C)C)c(O)cc2O)c1-c1ccc(CN2CCOCC2)cc1 [Luminespib] (partner 0.01 µM)
The method, boiled down: (§1)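 Nuclei were stained with Hoechst during a one-step fixation (final 0.05% Triton X-100, 1% formaldehyde, 1 ug/ml Hoechst) carried out 5 days after dosing, then counted on 4× images. The cells, lung cancer lines in 1536-well plates, had been dosed by pin tool the day after seeding with one drug alone or a fixed anchor-drug dose plus five library-drug doses (not always all listed) in √10 steps. Relative viability is the nuclei count in treated wells divided by that in vehicle wells, and each value is the median of duplicate plates.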

Compound in the experiment “Masitinib + Pemetrexed”: Cc1ccc(NC(=O)c2ccc(CN3CCN(C)CC3)cc2)cc1Nc1nc(-c2cccnc2)cs1 [Masitinib] + Nc1nc2[nH]cc(CCc3ccc(C(=O)N[C@@H](CCC(=O)O)C(=O)O)cc3)c2c(=O)[nH]1 [Pemetrexed] (partner 0.2 µM)
The method, boiled down: as §1

Compound in the experiment “Masitinib + Bortezomib”: Cc1ccc(NC(=O)c2ccc(CN3CCN(C)CC3)cc2)cc1Nc1nc(-c2cccnc2)cs1 [Masitinib] + CC(C)C[C@H](NC(=O)[C@H](Cc1ccccc1)NC(=O)c1cnccn1)B(O)O [Bortezomib] (partner 0.002 µM)
The method in brief:
as §1

Compound in experiment [1]: CC1=CC(=CC=C1)NC2=NC(=CS2)C3=CC=NC=C3 + CC(=O)Nc1cccc(-n2c(=O)n(C3CC3)c(=O)c3c(Nc4ccc(I)cc4F)n(C)c(=O)c(C)c32)c1 [Trametinib] (partner 0.02 µM)
The method in brief:
as §1

Turning to UMC-11, the relative viability in the experiment with Masitinib + Luminespib (first compound 0.03162 µM) turned out to be 1.08; with Masitinib + Luminespib (first compound 0.1 µM) it was 1.13; with Masitinib + Luminespib (first compound 0.3162 µM) it was 1.17; with Masitinib + Luminespib (first compound 1 µM), 1.12; with Masitinib + Pemetrexed (first compound 0.01 µM), 0.755; in the experiment with Masitinib + Pemetrexed (first compound 0.03162 µM), 0.751. The relative viability was determined as 0.783 with Masitinib + Pemetrexed (first compound 0.1 µM); 0.813 with Masitinib + Pemetrexed (first compound 0.3162 µM); 0.882 with Masitinib + Pemetrexed (first compound 1 µM); 0.793 with Masitinib + Bortezomib (first compound 0.01 µM); 0.743 in the experiment with Masitinib + Bortezomib (first compound 0.03162 µM); 0.79 in the experiment with Masitinib + Bortezomib (first compound 0.1 µM). Further, the relative viability with Masitinib + Bortezomib (first compound 0.3162 µM) was 1.03; with Masitinib + Bortezomib (first compound 1 µM), 0.714; in experiment [1] (first compound 0.08 µM), 0.555; in experiment [1] (first compound 0.253 µM), 0.737; in experiment [1] (first compound 0.8 µM) it was 0.731; in experiment [1] (first compound 2.53 µM), 0.768. In experiment [1] (first compound 8 µM), the relative viability worked out at 0.764.
